According to patent US20250059220A1, “SUBSTITUTED BENZOTHIOPHENE DERIVATIVES AND METHODS OF USE THEREOF” (Merck Sharp & Dohme LLC, priority 2021, published 2025):

What was measured:
human PTPN1 (1-435) = human PTPN1 (1-435) (Homo sapiens (Human), UniProt P18031); assay: Human PTPN1 Biochemical Assay; conditions: DiFMUP substrate, read-out: PTP1B IC50
Description: Human PTPN1 Biochemical Assay
Test compounds were dissolved in DMSO, and 10-point serial 3-fold dilution series in DMSO were prepared in Echo Qualified 384-well Polypropylene Microplates (Labcyte, San Jose, CA) (top concentration 50 µM). […] 5 μl of assay buffer was added into the low control. The plate was incubated for 30 minutes at room temperature. Subsequently, 5 μl of 100 µM DiFMUP (6,8-difluoro-4-methylumbelliferyl phosphate) solution (prepared in assay buffer from 10 mM stock in DMSO) was added to the assay plate and incubated for 1 hour at room temperature. For detection, assay plates were read on SpectraMax Microplate Reader (Molecular Devices), with Excitation wavelength=360 nm and Emission wavelength=460 nm. […] Calculated % effects were fit using a 4-parameter algorithm, and EC50 was reported.

human PTPN2 (1-387) = human PTPN2 (1-387) (Homo sapiens (Human), UniProt P17706); assay: Human PTPN2 Biochemical Assay; conditions: DiFMUP substrate
Chain of human PTPN2 (1-387) (P17706 other isoform, or with tags, fused parts or gaps): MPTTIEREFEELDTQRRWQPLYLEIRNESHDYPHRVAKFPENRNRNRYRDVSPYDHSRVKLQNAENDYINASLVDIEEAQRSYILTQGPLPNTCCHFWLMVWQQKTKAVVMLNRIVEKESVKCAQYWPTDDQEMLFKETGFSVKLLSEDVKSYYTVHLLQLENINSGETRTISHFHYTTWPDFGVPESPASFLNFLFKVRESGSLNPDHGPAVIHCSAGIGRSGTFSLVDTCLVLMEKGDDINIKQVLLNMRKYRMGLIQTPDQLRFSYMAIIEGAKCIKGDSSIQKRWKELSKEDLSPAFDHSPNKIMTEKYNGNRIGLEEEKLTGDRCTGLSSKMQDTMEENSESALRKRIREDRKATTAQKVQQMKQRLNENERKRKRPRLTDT
Description: Human PTPN2 Biochemical Assay
Test compounds were dissolved in DMSO, and 10-point serial 3-fold dilution series in DMSO were prepared in Echo Qualified 384-well Polypropylene Microplates (Labcyte, San Jose, CA) (top concentration 50 µM). Assay plates (384-well low volume black plates; Corning #3820, Corning, NY) were prepared by dispensing 50 nL of test compound, and DMSO (for high and low controls) by ECHO acoustic dispenser (Labcyte, San Jose CA). This was followed by addition of 5 μL of 0.2 nM human PTPN2 (1-387) solution (prepared in the assay buffer, 50 mM Tris pH 7.4, 150 mM NaCl, 0.01% Tween20, 0.5 mM dithiothreitol) to all wells except the low control. 5 μl of assay buffer was added into the low control, then the plate was incubated for 30 minutes at room temperature. Subsequently, 5 μl of 100 µM DiFMUP (6,8-difluoro-4-methylumbelliferyl phosphate) solution (prepared in assay buffer from 10 mM stock in DMSO) was added to the assay plate and incubated for 1 hour at room temperature. For detection, assay plates were read on SpectraMax Microplate Reader (Molecular Devices), with Excitation wavelength=360 nm and Emission wavelength=460 nm. Test compound effects were normalized to the window defined by the controls, DMSO/buffer, and DMSO/50 pM human PTPN2. Calculated % effects were fit using a 4-parameter algorithm, and EC50 was reported.

Chain of human PTPN1 (1-435) (P18031 whole entry): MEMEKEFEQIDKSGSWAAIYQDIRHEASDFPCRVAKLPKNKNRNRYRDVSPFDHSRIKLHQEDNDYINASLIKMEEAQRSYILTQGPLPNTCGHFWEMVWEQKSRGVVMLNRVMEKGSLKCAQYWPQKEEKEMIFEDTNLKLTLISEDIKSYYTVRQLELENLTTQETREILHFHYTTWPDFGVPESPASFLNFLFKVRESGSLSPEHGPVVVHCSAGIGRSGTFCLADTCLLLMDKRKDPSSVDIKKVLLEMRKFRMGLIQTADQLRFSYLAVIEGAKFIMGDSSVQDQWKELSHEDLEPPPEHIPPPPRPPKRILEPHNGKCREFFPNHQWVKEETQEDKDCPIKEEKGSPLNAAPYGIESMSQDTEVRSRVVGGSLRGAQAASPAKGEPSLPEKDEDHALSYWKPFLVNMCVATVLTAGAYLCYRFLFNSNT

Structure (SMILES) | IC50 (human PTPN1 (1-435)) [µM] | IC50 (human PTPN2 (1-387)) [µM]
O=C(NC1CCCN(c2ccccc2)C1)c1ccc2sc(C(F)(F)P(=O)(O)O)c(Br)c2c1 (centres unmarked) [Compound 76] | 1.88 | 0.958
N#CCCNC(=O)c1ccc2sc(C(F)(F)P(=O)(O)O)c(C#N)c2c1 [Compound 6] | 6.05 | 4.64
O=C(NC(c1cccnc1)C(F)(F)F)c1ccc2sc(C(F)(F)P(=O)(O)O)c(Br)c2c1 (centres unmarked) [Compound 158] | 1.45 | 0.456
NC(c1cc(OCCCC(F)(F)F)c2sc(C(F)(F)P(=O)(O)O)c(Br)c2c1)C(F)(F)F (single isomer, unassigned) [Compound 261, (R or S)-((5-(1-amino-2,2,2-trifluoroethyl)-3-bromo-7-(4,4,4-trifluorobutoxy)benzo[b]thiophen-2-yl)difluoromethyl)phosphonic acid] | 2.02 | 5.88
C#Cc1cc(OCCCC(F)(F)F)c2sc(C(F)(F)P(=O)(O)O)c(Br)c2c1 [Compound 405, ((3-bromo-5-ethynyl-7-(4,4,4-trifluorobutoxy)benzo[b]thiophen-2-yl)difluoromethyl)phosphonic acid] | 0.29 | 0.288
COc1cccc(CNC(=O)c2ccc3sc(C(F)(F)P(=O)(O)O)c(Br)c3c2)c1OC(F)F [Compound 95] | 3.9 | 4.78
O=C(N[C@H]1CCCNC1=O)c1ccc2sc(C(F)(F)P(=O)(O)O)c(Br)c2c1 [Compound 97] | 7.08 | 8.23
O=C(NC(CO)c1ccccn1)c1ccc2sc(C(F)(F)P(=O)(O)O)c(Br)c2c1 (centres unmarked) [Compound 192] | 4.59 | 7.98
N#Cc1c(C(F)(F)P(=O)(O)O)sc2ccc(C(=O)NC3CC(F)(F)C3)cc12 [Compound 4] | 1.45 | 1.2
O=C(NCCn1nncc1-c1ccccc1)c1ccc2sc(C(F)(F)P(=O)(O)O)c(Br)c2c1 [Compound 150] | 2.59 | 6.28
O=C(NCc1c[nH]nn1)c1cc(O)c2sc(C(F)(F)P(=O)(O)O)c(Br)c2c1 [Compound 167] | 3.56 | 3.07
Cc1nn(C)c(C)c1CNC(=O)c1ccc2sc(C(F)(F)P(=O)(O)O)c(Br)c2c1 [Compound 124] | 6.12 | 7.38
C[C@H](NC(=O)c1ccc2sc(C(F)(F)P(=O)(O)O)c(Br)c2c1)c1cccnc1 [Compound 200] | 0.976 | 1.47
N#Cc1c(C(F)(F)P(=O)(O)O)sc2ccc(C(=O)NCc3ncn[nH]3)cc12 [Compound 171] | 2.18 | 1.47
Cc1nnc(-c2cc(OCCCC(F)(F)F)c3sc(C(F)(F)P(=O)(O)O)c(Br)c3c2)[nH]1 [Compound 417, ((3-bromo-5-(5-methyl-4H-1,2,4-triazol-3-yl)-7-(4,4,4-trifluorobutoxy)benzo[b]thiophen-2-yl)difluoromethyl)phosphonic acid] |  | 0.00908
NC(=O)c1cc(OCCCC(F)(F)F)c2sc(C(F)(F)P(=O)(O)O)c(Br)c2c1 [Compound 168] | 0.0282 | 0.0297
Cc1c[nH]c(CNC(=O)c2ccc3sc(C(F)(F)P(=O)(O)O)c(Br)c3c2)n1 [Compound 198] | 5.71 | 5.46
O=C(NC1(c2cccc(F)c2)CCCC1)c1ccc2sc(C(F)(F)P(=O)(O)O)c(Br)c2c1 [Compound 115] | 3.62 | 2.6
N#CC1CCC(NC(=O)c2ccc3sc(C(F)(F)P(=O)(O)O)c(Br)c3c2)C1 (centres unmarked) [Compound 37] | 2.65 | 3.49
COc1ncccc1CNC(=O)c1ccc2sc(C(F)(F)P(=O)(O)O)c(Br)c2c1 [Compound 122] | 3.89 | 5.37
O=P(O)(O)C(F)(F)c1sc2c(OCCCC(F)(F)F)cc(I)cc2c1Br [Compound 406, ((3-bromo-5-iodo-7-(4,4,4-trifluorobutoxy)benzo[b]thiophen-2-yl)difluoromethyl)phosphonic acid] | 0.487 | 0.518
O=C(Nc1ccc(Cn2cccn2)cc1)c1ccc2sc(C(F)(F)P(=O)(O)O)c(Br)c2c1 [Compound 64] | 1.44 | 1.8
O=C(NCc1ncc(F)cn1)c1ccc2sc(C(F)(F)P(=O)(O)O)c(Br)c2c1 [Compound 184] | 4.97 | 7.34
CCC(NC(=O)c1ccc2sc(C(F)(F)P(=O)(O)O)c(Br)c2c1)c1cccnc1 (centres unmarked) [Compound 177] | 0.839 | 2.07
CN(C)C(=O)c1cc(OCCCC(F)(F)F)c2sc(C(F)(F)P(=O)(O)O)c(Br)c2c1 [Compound 204] | 1.43 | 1.26
O=C(NCc1cccnc1)c1ccc2sc(C(F)(F)P(=O)(O)O)c(Br)c2c1 [Compound 11] | 2.16 | 3.05
CC(C)(O)CCOc1cc(C(=O)NCc2cccnn2)cc2c(Br)c(C(F)(F)P(=O)(O)O)sc12 [Compound 169] |  | 0.133
O=P(O)(O)C(F)(F)c1sc2c(OCCCC(F)(F)F)cc(O)cc2c1Br [Compound 419, ((3-bromo-5-hydroxy-7-(4,4,4-trifluorobutoxy)benzo[b]thiophen-2-yl)difluoromethyl)phosphonic acid] |  | 0.345
O=C(NCc1cccnn1)c1ccc2sc(C(F)(F)P(=O)(O)O)c(Br)c2c1 [Compound 31] |  | 1.47

More lines, now with the values ahead:

IC50 (human PTPN1 (1-435)) [µM] | IC50 (human PTPN2 (1-387)) [µM] | Structure (SMILES)
0.071 | 0.168 | NC(=O)c1cc(OCC[C@@H]2C[C@H]2C(F)(F)F)c2sc(C(F)(F)P(=O)(O)O)c(Br)c2c1 [Compound 282]
0.0252 | 0.0129 | NC(=O)c1cc(OCc2ccc(OC(F)F)cc2)c2sc(C(F)(F)P(=O)(O)O)c(Br)c2c1 [Compound 360]
0.327 | 0.227 | CCOc1cc(C(N)=O)cc2c(Br)c(C(F)(F)P(=O)(O)O)sc12 [Compound 238]
0.0617 | 0.109 | CNC(=O)c1cc(OCCCS(C)(=O)=O)c2sc(C(F)(F)P(=O)(O)O)c(C)c2c1 [Compound 430]
0.177 | 0.0757 | COc1ccc(COc2cc(C(N)=O)cc3c(Br)c(C(F)(F)P(=O)(O)O)sc23)c(C(F)(F)F)c1 [Compound 348]
0.0845 | 0.0609 | NC(=O)c1cc(OCC2CC3(CC3)C2)c2sc(C(F)(F)P(=O)(O)O)c(Br)c2c1 [Compound 249]
0.0181 | 0.0141 | N#CCCNC(=O)c1cc(OCCCC(F)(F)F)c2sc(C(F)(F)P(=O)(O)O)c(Br)c2c1 [Compound 329]
0.0125 | 0.014 | CN(C)S(=O)(=O)CCCOc1cc(C(N)=O)cc2c(Br)c(C(F)(F)P(=O)(O)O)sc12 [Compound 374]
0.128 | 0.0193 | NC(=O)c1cc(OCc2ccc(-c3ncccn3)cc2)c2sc(C(F)(F)P(=O)(O)O)c(Br)c2c1 [Compound 343]
0.0618 | 0.0505 | N#CCCCCOc1cc(C(N)=O)cc2c(Br)c(C(F)(F)P(=O)(O)O)sc12 [Compound 241]
0.692 | 0.364 | Cc1cc(C)c(COc2cc(C(N)=O)cc3c(Br)c(C(F)(F)P(=O)(O)O)sc23)c(C)c1 [Compound 352]
0.0092 | 0.0104 | CS(=O)(=O)CCCOc1cc(C(=O)NCCC#N)cc2c(Br)c(C(F)(F)P(=O)(O)O)sc12 [Compound 330]
0.0025 | 0.0025 | CS(=O)(=O)CCCOc1cc(-c2nc[nH]n2)cc2c(C#N)c(C(F)(F)P(=O)(O)O)sc12 [Compound 428]
0.132 | 0.0593 | NC(=O)c1cc(OCc2ccc(C3(C(F)(F)F)CC3)cc2)c2sc(C(F)(F)P(=O)(O)O)c(Br)c2c1 [Compound 388]
0.0681 | 0.0504 | NC(=O)c1cc(OCC2CC2(F)F)c2sc(C(F)(F)P(=O)(O)O)c(Br)c2c1 (centres unmarked) [Compound 316]
0.0767 | 0.0428 | COc1cc(Cl)ccc1COc1cc(C(N)=O)cc2c(Br)c(C(F)(F)P(=O)(O)O)sc12 [Compound 362]
 | 0.335 | CCCCSc1cc(C(N)=O)cc2c(Br)c(C(F)(F)P(=O)(O)O)sc12 [Compound 309]
 | 0.241 | NC(=O)c1cc(CCCCC(F)(F)F)c2sc(C(F)(F)P(=O)(O)O)c(Br)c2c1 [Compound 296, ((3-bromo-5-carbamoyl-7-(5,5,5-trifluoropentyl)benzo[b]thiophen-2-yl)difluoromethyl)phosphonic acid]
 | 1.17 | CNC(=O)COc1cc(C(N)=O)cc2c(Br)c(C(F)(F)P(=O)(O)O)sc12 [Compound 246]
